For 23 compounds, IC50 results are on record in patent publication US10131642B1, “Aldosterone synthase inhibitors” (Boehringer Ingelheim International GmbH, priority 2015, dated 2018).

Experiment [1] concerns the target T1, aldosterone synthase (CYP11B2) (Macaca fascicularis, UniProt A0A2K5UPL9).
T1 construct: cynomolgus adrenal gland mitochondria as the source of aldosterone synthase (CYP11B2); from tissue; host or cells: cynomolgus monkey adrenal gland mitochondria
T1 sequence (A0A2K5UPL9 1-503): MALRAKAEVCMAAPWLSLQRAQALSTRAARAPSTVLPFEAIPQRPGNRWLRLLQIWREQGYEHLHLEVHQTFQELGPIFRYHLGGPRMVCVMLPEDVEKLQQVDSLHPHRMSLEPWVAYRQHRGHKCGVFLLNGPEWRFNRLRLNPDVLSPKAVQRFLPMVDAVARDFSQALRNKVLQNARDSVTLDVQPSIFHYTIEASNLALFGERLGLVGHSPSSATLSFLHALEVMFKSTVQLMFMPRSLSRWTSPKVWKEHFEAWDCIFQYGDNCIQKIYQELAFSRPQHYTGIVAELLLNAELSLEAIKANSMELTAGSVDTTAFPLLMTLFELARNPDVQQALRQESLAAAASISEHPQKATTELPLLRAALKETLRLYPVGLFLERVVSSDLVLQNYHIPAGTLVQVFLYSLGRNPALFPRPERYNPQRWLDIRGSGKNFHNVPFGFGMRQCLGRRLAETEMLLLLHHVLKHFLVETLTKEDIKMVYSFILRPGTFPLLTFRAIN
Kind of experiment: Inhibition of aldosterone synthase (cynomolgus adrenal mitochondria, aldosterone by mass spectrometry). The experiment is classed as biochemical, cynomolgus monkey. The following applies: cynomolgus adrenal gland mitochondria, 2 μM corticosterone substrate, 90 minutes at 37° C. In outline: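 Cynomolgus adrenal mitochondria (50 units CYP11B2 activity) with 2 μM corticosterone in 100 mM potassium phosphate pH 7.4, 1% DMSO. Started with 1 mM NADPH, 90 min at 37° C. Aldosterone measured by mass spectrometry; IC50 from 4-parameter logistic fit, NADPH-free reactions as blank.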

Experiment [2] concerns the target cortisol synthase (CYP11B1) (Macaca fascicularis, UniProt A0A2K5ULY1). Description: Inhibition of cortisol synthesis (cynomolgus adrenal mitochondria, cortisol by mass spectrometry). It is filed as biochemical, cynomolgus monkey. The following applies: cynomolgus adrenal gland mitochondria, 11-deoxycortisol as substrate, cortisol measured as product; read-out: CYP11B1 Inhibition IC50. The procedure, abridged: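 Cynomolgus adrenal mitochondria supplied CYP11B1 (150 units) with 11-deoxycortisol as substrate, plus NADPH; cortisol product measured by mass spectrometry. Activity expressed as % of compound-free NADPH control across compound concentrations; IC50 from 4-parameter logistic fit.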

With `CC1CC(=O)c2c(noc2Cc2ccc(C(N)=O)cc2)C1` (stereo not shown) [Cpd 74, 4-(6-Methyl-4-oxo-4,5,6,7-tetrahydro-benzo[c]isoxazol-3-ylmethyl)-benzamide], the results for the IC50 in experiment [1] and in experiment [2] were 82 nM and 3000 nM, respectively.

On to `CC1(C)CC(=O)c2c(noc2Cc2ccc(C(N)=O)cc2)C1` [Cpd 75, 4-(6,6-Dimethyl-4-oxo-4,5,6,7-tetrahydro-benzo[c]isoxazol-3-ylmethyl)-benzamide], for which the half-maximal inhibitory concentration (IC50) – broadly, the concentration needed to halve the response being measured – in experiment [1] stood at 100 nM; in experiment [2] it was 15000 nM.

With `CC(C)C1CC(=O)c2c(noc2Cc2ccc(C(N)=O)cc2)C1` (stereo not shown) [Cpd 76, 4-(6-Isopropyl-4-oxo-4,5,6,7-tetrahydro-benzo[c]isoxazol-3-ylmethyl)-benzamide], the IC50 in experiment [1] was determined as 25 nM; in experiment [2] it was 530 nM.

For `NC(=O)c1ccc(Cc2onc3c2C(=O)CC2(CCC2)C3)cc1` [Cpd 77, 4-(-6,6-spiro-cyclobutyl-4-oxo-4,5,6,7-tetrahydro-benzo[c]isoxazol-3-ylmethyl)-benzamide], the IC50 in experiment [1] came out at 12 nM; in experiment [2], 130 nM.

`CC1(C)CC(=O)c2c(noc2Cc2ccc(OCCCC(N)=O)cc2)C1` [Cpd 78]: the IC50 in experiment [1] amounted to 24 nM; in experiment [2], 3300 nM.

In the case of `CN(C)C(=O)CCCOc1ccc(Cc2onc3c2C(=O)CC(C)(C)C3)cc1` [Cpd 79], the figures for the IC50 in experiment [1] and in experiment [2] were 23 nM and 7800 nM, respectively.

Turning to `CNC(=O)CCOc1ccc(Cc2onc3c2C(=O)CC(C)(C)C3)cc1` [Cpd 80, 3-[4-(6,6-Dimethyl-4-oxo-4,5,6,7-tetrahydro-benzo[c]isoxazol-3-ylmethyl)-phenoxy]-N-methyl-propionamide], the 50% inhibitory concentration (IC50) in experiment [1] is 29 nM; in experiment [2], 1800 nM.

With `CC1(C)CC(=O)c2c(noc2Cc2ccc(OCCC(N)=O)cc2)C1` [Cpd 81, 3-[4-(6,6-Dimethyl-4-oxo-4,5,6,7-tetrahydro-benzo[c]isoxazol-3-ylmethyl)-phenoxy]-propionamide], the IC50 amounted to 35 nM in experiment [1] and 2500 nM in experiment [2].

Consider `CN(C)C(=O)CCOc1ccc(Cc2onc3c2C(=O)CC(C)(C)C3)cc1` [Cpd 82, 3-[4-(6,6-Dimethyl-4-oxo-4,5,6,7-tetrahydro-benzo[c]isoxazol-3-ylmethyl)-phenoxy]-N,N-dimethyl-propionamide], for which the IC50 in experiment [1] came to 44 nM; in experiment [2], 4000 nM.

As for `CC1(C)CC(=O)c2c(noc2Cc2ccc(OCCC(=O)N3CC[C@@H](O)C3)cc2)C1` [Cpd 83, 3-{4-[3-((R)-3-Hydroxy-pyrrolidin-1-yl)-3-oxo-propoxy]-benzyl}-6,6-dimethyl-6,7-dihydro-5H-benzo[c]isoxazol-4-one], the results for the IC50 in experiment [1] and in experiment [2] were 69 nM and 2700 nM, respectively.

`CC1(C)CC(=O)c2c(noc2Cc2ccc(OCCCC(=O)N3CC[C@@H](O)C3)cc2)C1` [Cpd 84, 3-{4-[4-((R)-3-Hydroxy-pyrrolidin-1-yl)-4-oxo-butoxy]-benzyl}-6,6-dimethyl-6,7-dihydro-5H-benzo[c]isoxazol-4-one]: the IC50 in experiment [1] worked out at 69 nM; in experiment [2], 6900 nM.

With `CC1(C)CC(=O)c2c(noc2Cc2ccc(OCCS(C)(=N)=O)cc2)C1` (stereo not shown) [Cpd 85, 3-[4-(2-Methanesulfoximine-ethoxy)-benzyl]-6,6-dimethyl-6,7-dihydro-5H-benzo[c]isoxazol-4-one], the half-maximal inhibitory concentration (IC50) in experiment [1] was found to be 56 nM; in experiment [2], 6500 nM.

Turning to `CC1(C)Cc2noc(Cc3ccc(C#N)cc3)c2C(=O)O1` [Cpd 87, 4-(6,6-Dimethyl-4-oxo-6,7-dihydro-4H-pyrano[4,3-c]isoxazol-3-ylmethyl)-benzonitrile], the IC50 in experiment [1] stood at 220 nM; in experiment [2] it was 77000 nM.

For the compound `CC1(C)Cc2noc(Cc3ccc(F)cc3)c2C(=O)O1` [Cpd 88, 3-(4-Fluoro-benzyl)-6,6-dimethyl-6,7-dihydro-pyrano[4,3-c]isoxazol-4-one], the IC50 turned out to be 190 nM in experiment [1] and 25000 nM in experiment [2].

Take `COc1ccc(Cc2onc3c2C(=O)OC(C)(C)C3)cc1` [Cpd 89, 3-(4-Methoxy-benzyl)-6,6-dimethyl-6,7-dihydro-pyrano[4,3-c]isoxazol-4-one]: the results for the IC50 in experiment [1] and in experiment [2] were 27 nM and 9800 nM, respectively.

On to `CC1(C)Cc2noc(Cc3ccc(OCCCS(C)(=O)=O)cc3)c2C(=O)O1` [Cpd 90, 3-[4-(3-Methanesulfonyl-propoxy)-benzyl]-6,6-dimethyl-6,7-dihydro-pyrano[4,3-c]isoxazol-4-one], for which the results for the IC50 in experiment [1] and in experiment [2] were 16 nM and 4600 nM, respectively.

Consider `CC1(C)Cc2noc(Cc3ccc(OCCS(C)(=O)=O)cc3)c2C(=O)O1` [Cpd 91, 3-[4-(2-Methanesulfonyl-ethoxy)-benzyl]-6,6-dimethyl-6,7-dihydro-pyrano[4,3-c]isoxazol-4-one], for which the IC50 in experiment [1] amounted to 120 nM; in experiment [2] it was 21000 nM.

As for `CC1(C)Cc2noc(CC3CCOCC3)c2C(=O)O1` [Cpd 92, 6,6-Dimethyl-3-(tetrahydro-pyran-4-ylmethyl)-6,7-dihydro-pyrano[4,3-c] isoxazol-4-one], the results for the IC50 in experiment [1] and in experiment [2] were 340 nM and 69000 nM, respectively.

Take `CC1(C)Cc2noc(Cc3ccc(C(=O)N4CC[C@@H](O)C4)cc3)c2C(=O)O1` [Cpd 93, 3-[4-((R)-3-Hydroxy-pyrrolidine-1-carbonyl)-benzyl]-6,6-dimethyl-6,7-dihydro-pyrano[4,3-c]isoxazol-4-one]: the values for the IC50 in experiment [1] and in experiment [2] were 73 nM and 2600 nM, respectively.

`CC1(C)Cc2noc(Cc3ccc(C(=O)NCCS(C)(=O)=O)cc3)c2C(=O)O1` [Cpd 94, 4-(6,6-Dimethyl-4-oxo-6,7-dihydro-4H-pyrano[4,3-c]isoxazol-3-ylmethyl)-N-(2-methanesulfonyl-ethyl)-benzamide]: the IC50 came to 42 nM in experiment [1] and 4300 nM in experiment [2].

On to `CC1(C)Cc2noc(Cc3ccc(C(N)=O)cc3)c2C(=O)O1` [Cpd 95, 4-(6,6-Dimethyl-4-oxo-6,7-dihydro-4H-pyrano[4,3-c]isoxazol-3-ylmethyl)-benzamide], for which the figures for the IC50 in experiment [1] and in experiment [2] were 71 nM and 16000 nM, respectively.

Turning to `CN(CCO)C(=O)c1ccc(Cc2onc3c2C(=O)OC(C)(C)C3)cc1` [Cpd 96, 4-(6,6-Dimethyl-4-oxo-6,7-dihydro-4H-pyrano[4,3-c]isoxazol-3-ylmethyl)-N-(2-hydroxy-ethyl)-N-methyl-benzamide], the IC50 in experiment [1] stood at 73 nM; in experiment [2] it was 10000 nM.

Consider `CN1CCN(C(=O)c2ccc(Cc3onc4c3C(=O)OC(C)(C)C4)cc2)CC1=O` [Cpd 97, 6,6-Dimethyl-3-[4-(4-methyl-3-oxo-piperazine-1-carbonyl)-benzyl]-6,7-dihydro-pyrano[4,3-c]isoxazol-4-one], for which the IC50 in experiment [1] was determined as 170 nM; in experiment [2] it was 11000 nM.
